Assay results taken from article PMC7006505, “Chemical biology tools for probing transcytosis at the blood–brain barrier” (Chemical Science, 2019).

Tests used:
[1] = molecular target: T1, extracellular subunit of TfR recombinant human protein, N-His Tag (Homo sapiens, UniProt P02786); experiment: TfR binding ELISA (FAM-labelled shuttles on TfR-coated plates); details: plates coated with 1 µg/ml TfR, 1 h at room temp in PBS, anti-FAM HRP antibody (streptavidin peroxidase for Tf-biotin), absorption 450 nm, read-out: apparent binding affinity (EC50) to TfR
T1 construct: extracellular subunit of TfR; purchased Life Technologies
T1 sequence (P02786 89-760 limits assumed): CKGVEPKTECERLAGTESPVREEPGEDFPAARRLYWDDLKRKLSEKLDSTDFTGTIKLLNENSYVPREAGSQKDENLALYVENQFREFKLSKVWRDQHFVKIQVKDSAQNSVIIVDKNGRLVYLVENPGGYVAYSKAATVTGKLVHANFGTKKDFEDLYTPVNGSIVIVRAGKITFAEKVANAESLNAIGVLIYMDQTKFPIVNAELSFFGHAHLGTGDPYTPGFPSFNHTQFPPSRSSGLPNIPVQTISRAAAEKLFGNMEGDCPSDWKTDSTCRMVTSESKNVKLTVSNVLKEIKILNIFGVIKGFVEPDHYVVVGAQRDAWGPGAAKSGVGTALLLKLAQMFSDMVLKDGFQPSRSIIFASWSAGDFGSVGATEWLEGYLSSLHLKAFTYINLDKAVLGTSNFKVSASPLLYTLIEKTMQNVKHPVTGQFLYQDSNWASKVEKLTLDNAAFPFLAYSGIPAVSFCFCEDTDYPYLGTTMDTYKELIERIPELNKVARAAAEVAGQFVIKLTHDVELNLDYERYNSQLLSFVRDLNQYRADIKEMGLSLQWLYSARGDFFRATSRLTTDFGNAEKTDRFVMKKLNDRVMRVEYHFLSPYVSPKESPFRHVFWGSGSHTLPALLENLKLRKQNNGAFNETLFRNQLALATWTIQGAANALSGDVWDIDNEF
Protocol: To evaluate functionality of the conjugated peptides, in vitro analyses were performed. TfR binding was assessed through an ELISA format, whereby FAM-conjugated shuttles were serially diluted and added to plates that were coated with TfR protein. FAM-labelled vehicles were detected by an anti-FAM HRP-conjugated antibody.
The procedure was performed at room temp on a shaking platform using PBS-Tween (0.05%) for the wash steps. Nickel coated clear 96-well plates (Pierce) was coated overnight with 1 µg/ml of the extracellular subunit of TfR recombinant human protein, N-His Tag (Life Technologies) in 0.5 M Carbonate buffer. The plates were washed (5 × 150 µL) and blocked for 1 h with PBS containing 1% BSA. 100 µL of the compound dilutions in PBS were transferred to the plate and incubated for 1 h at room temp, after which time the plates were washed (5 × 150 µL). A Goat anti-FAM peroxidase labelled antibody (Abcam, 1:100 000) was added to the wells and incubated for 30 min. Following 6 washes, 50 µL of TMB Substrate Solution (Sigma) was added per well and incubated for a further 30 min. After addition of 50 µL of 2 M sulphuric acid to each well , receptor complexes were detected by measuring absorption at 450 nm. The procedure for determining the binding affinity of biotin labelled Tf (Sigma) was similar except streptavidin peroxidas e (ThermoFisher Scientific) (1:20 000) was used to measure the Tf -receptor complex.
Imaging and Immunochemistry
Colocalis ation of delivery scaffolds with LAMP1 and Tf -A647 bEND.3 cells were seeded at a density of 1 x 10^4 cells/we ll in 8-well glass plates (ibidi ) coated with rat tail collagen. After 3 days at 100 % confluence, cells were washed with PBS (3 × 180 µL), and co-incubated with brain delivery scaffolds (5 µM) and Tf-A647 (50 µg/ml) at 37 °C for 2 h in FluoroBrite DMEM media (Thermofisher). Cells were washed with PBS (3 × 180 µL), then fixed with 4 % paraformaldehyde for 15 min at room temperature. […]

TfR = details: micromolar affinity; read-out: affinity towards the receptor (TfR); cited from earlier work
Text: To enable targeted brain delivery, we chose to functionalise our scaffold with established ligands that engage the transferrin receptor (TfR) and low-density lipoprotein-receptor related protein (LRP1). The relative abundance of these receptors on brain endothelial, alongside their high transport capacity, made them ideal targets for RMT mediated delivery and both have been actively explored in research.[8],[14]–[16]

Row | Compound | EC50 [1] | Kd (TfR)
1 | CC[C@H](C)[C@H](NC(=O)[C@H](C)NC(=O)[C@H](Cc1c[nH]cn1)NC(=O)[C@@H](N)CCCCn1cc(C[C@H](NC(=O)[C@H](CCCNC(=N)N)NC(=O)[C@@H](NC(=O)[C@@H]2CCCN2C(=O)[C@@H]2CCCN2C(=O)[C@@H]2CCCN2C(=O)[C@H](CC(C)C)NC(=O)[C@H](CCCNC(=N)N)NC(=O)[C@@H](NC(=O)[C@@H]2CCCN2C(=O)[C@@H]2CCCN2C(=O)[C@@H]2CCCN2C(=O)[C@H](Cc2cn(CCCC[C@H](N)C(=O)N[C@@H](Cc3c[nH]cn3)C(=O)N[C@@H](C)C(=O)N[C@H](C(=O)N[C@@H](Cc3ccc(O)cc3)C(=O)N3CCC[C@H]3C(=O)N[C@@H](CCCNC(=N)N)C(=O)N[C@@H](Cc3c[nH]cn3)C(N)=O)[C@@H](C)CC)nn2)NC(=O)[C@H](CCCNC(=N)N)NC(=O)[C@@H](NC(=O)c2ccc3c(c2)C(=O)OC32c3ccc(O)cc3Oc3cc(O)ccc32)C(C)C)C(C)C)C(C)C)C(=O)N2CCC[C@H]2C(=O)N2CCC[C@H]2C(=O)N2CCC[C@H]2C(N)=O)nn1)C(=O)N[C@@H](Cc1ccc(O)cc1)C(=O)N1CCC[C@H]1C(=O)N[C@@H](CCCNC(=N)N)C(=O)N[C@@H](Cc1c[nH]cn1)C(N)=O [PPII(L3X;L15X)TfRL2] | 11.8 ± 1.11 nM | –
2 | CC[C@H](C)[C@H](NC(=O)[C@H](C)NC(=O)[C@H](Cc1c[nH]cn1)NC(=O)[C@@H](N)CCCCn1cc(C[C@H](NC(=O)[C@@H]2CCCN2C(=O)[C@@H]2CCCN2C(=O)[C@@H]2CCCN2C(=O)[C@H](CC(C)C)NC(=O)[C@H](CCCNC(=N)N)NC(=O)[C@@H](NC(=O)[C@@H]2CCCN2C(=O)[C@@H]2CCCN2C(=O)[C@@H]2CCCN2C(=O)[C@H](Cc2cn(CCCC[C@H](N)C(=O)N[C@@H](Cc3c[nH]cn3)C(=O)N[C@@H](C)C(=O)N[C@H](C(=O)N[C@@H](Cc3ccc(O)cc3)C(=O)N3CCC[C@H]3C(=O)N[C@@H](CCCNC(=N)N)C(=O)N[C@@H](Cc3c[nH]cn3)C(N)=O)[C@@H](C)CC)nn2)NC(=O)[C@H](CCCNC(=N)N)NC(=O)[C@@H](NC(=O)c2ccc3c(c2)C(=O)OC32c3ccc(O)cc3Oc3cc(O)ccc32)C(C)C)C(C)C)C(=O)N[C@@H](CCCNC(=N)N)C(=O)N[C@@H](CC(C)C)C(=O)N2CCC[C@H]2C(=O)N2CCC[C@H]2C(=O)N2CCC[C@H]2C(N)=O)nn1)C(=O)N[C@@H](Cc1ccc(O)cc1)C(=O)N1CCC[C@H]1C(=O)N[C@@H](CCCNC(=N)N)C(=O)N[C@@H](Cc1c[nH]cn1)C(N)=O [PPII(L3X;V13X)TfRL2] | 12.7 ± 1.37 nM | –
3 | HAIYPRH [TfRL2] | – | 440000 nM
4 | Tf-biotin: biotin labelled transferrin (Sigma) [reference compound] | 20.9 ± 2.1 nM | –
